Results on 5 molecules are retold here after ChEMBL document CHEMBL5729255, “Compounds and uses thereof” (2022).

The structures appear in SMILES notation.

The test addresses T1, Bromodomain-containing protein 9 (Homo sapiens, UniProt Q9H8M2).
T1 sequence (Q9H8M2 whole entry): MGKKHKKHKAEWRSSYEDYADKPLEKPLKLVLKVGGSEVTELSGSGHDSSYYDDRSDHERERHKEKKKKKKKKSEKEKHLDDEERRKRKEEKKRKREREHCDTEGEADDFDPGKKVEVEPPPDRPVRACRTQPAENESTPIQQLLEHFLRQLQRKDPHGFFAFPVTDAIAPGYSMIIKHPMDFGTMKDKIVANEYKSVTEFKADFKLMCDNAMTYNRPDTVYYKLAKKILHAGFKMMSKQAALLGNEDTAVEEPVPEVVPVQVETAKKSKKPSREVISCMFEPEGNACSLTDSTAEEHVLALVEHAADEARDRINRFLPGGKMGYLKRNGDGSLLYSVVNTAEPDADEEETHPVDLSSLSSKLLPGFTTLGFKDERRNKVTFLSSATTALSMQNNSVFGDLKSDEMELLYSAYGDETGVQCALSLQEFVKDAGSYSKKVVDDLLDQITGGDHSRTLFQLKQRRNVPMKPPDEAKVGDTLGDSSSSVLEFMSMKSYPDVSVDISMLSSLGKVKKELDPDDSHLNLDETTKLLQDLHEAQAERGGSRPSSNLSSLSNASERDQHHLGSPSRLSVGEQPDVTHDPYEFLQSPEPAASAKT
Kind of test: Bromodomain TR-FRET Competition Binding Assay: A mixture of biotinylated-ligand and SureLight Allophycocyanin-Streptavidin (APC-SA, PerkinElmer AD0201) in 50 mM HEPES (pH 7.4), 50 mM NaCl, 1 mM TCEP (pH 7), 0.01% (v/v) Tween-20, 0.01% (w/v) bovine serum albumin was added to a white 384-well PerkinElmer Proxiplate Plus plate. DMSO or 3-fold serially diluted compounds were then added to the Proxiplate followed by addition of Flag-BRD9. After a 10-minute incubation at room temperature, Eu-W1024 anti-FLAG (PerkinElmer, AD0273) was added. The final reaction miture that contained 3.75 nM biotinylated ligand, 3 nM Flag-BRD9, 7.5 nM SureLight Allophycocyanin-Streptavidin, and 0.2 nM Eu-W1024 anti-FLAG was incubated at room temperature for 90 minutes. (In general: In TR-FRET formats the signal depends on donor and acceptor labels being close together.)
As for `COc1cc(-c2cn(C)c(=O)c3cnccc23)cc(OC)c1CN1CC(OCc2cn(CCOc3ccc4c(c3)C(=O)N(C3CCC(=O)NC3=O)C4=O)nn2)C1` (stereo not given), the IC50 was under 0.01 µM.

On to `COc1cc(-c2cn(C)c(=O)c3cnccc23)cc(OC)c1CN1CC(S(=O)(=O)NCCCCNc2ccc3c(c2)C(=O)N(C2CCC(=O)NC2=O)C3=O)C1` (stereo not given), for which the IC50 was under 0.01 µM.

`COc1cc(-c2cn(C)c(=O)c3cnccc23)cc(OC)c1CN(C)Cc1cn(-c2ccc3c(c2)C(=O)N(C2CCC(=O)NC2=O)C3=O)nn1` (stereo not given): the concentration for half-maximal inhibition (IC50) was over 0.01 µM.

Regarding `COc1cc(-c2cn(C)c(=O)c3cnccc23)cc(OC)c1CN1CCN(C(=O)CCCCOc2cccc3c2C(=O)N(C2CCC(=O)NC2=O)C3=O)CC1` (stereo not given), the IC50 was under 0.01 µM.

On to `COc1cc(-c2cn(C)c(=O)c3cnccc23)cc(OC)c1CN1CCCC(OCc2cn(CCCCOc3ccc4c(c3)C(=O)N(C3CCC(=O)NC3=O)C4=O)nn2)C1` (stereo not given), for which the IC50 is over 0.01 µM.

What is called IC50 is the midpoint of a concentration-inhibition curve.
